Measured values as given in US20240002391A1, “4-ALKOXYPYRROLO[2,1-F][1,2,4]TRIAZINES AND PREPARATION AND USES THEREOF” (BioSplice Therapeutics, Inc., priority 2022, published 2024).
pIC50: −log10 of the molar value.

These compounds were tested against recombinant DYRK1A kinase (Homo sapiens (Human), UniProt Q13627) (assay: DYRK1A kinase assay (Ser/Thr 18 peptide Z-lyte FRET)). Conditions: DYRK1A kinase activity, Z-lyte Ser/Thr 18 peptide, 15 μM ATP; method text calls the value IC50; read-out: EC50 (the source's name).
Format: biochemical
Procedure, shortened: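 Kinase 0.25 μg/mL + ATP 15 μM + Ser/Thr 18 peptide 4 μM, 1 h RT with cpd (10 μM top, 1:3, 11 pts, n=2). Dev. reagent A 1 h RT. Ex 400, Em 455/520 ratio → % phos. → IC50, nonlinear fit.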

Compound | pIC50
CCC(=O)N1CC[C@@H](Nc2nc(OC)c3c(-c4ccc5nnn(CC(F)F)c5c4)ccn3n2)[C@@H](F)C1 [Compound 772, 1-((3S,4R)-4-((5-(1-(2,2-Difluoroethyl)-1H-benzo[d][1,2,3]triazol-6-yl)-4-methoxypyrrolo[2,14][1,2,4]triazin-2-yl)amino)-3-fluoropiperidin-1-yl)propan-1-one] | 8.70
COc1nc(N[C@H]2CCN(C3COC3)C[C@H]2F)nn2ccc(-c3ccc4nc(C)n(CC(F)F)c4c3)c12 [Compound 137, 5-(1-(2,2-Difluoroethyl)-2-methyl-1H-benzo[d]imidazol-6-yl)-N-((3R,4S)-3-fluoro-1-(oxetan-3-yl)piperidin-4-yl)-4-methoxypyrrolo[2,1-f][1,2,4]triazin-2-amine] | 8.72
COc1nc(N[C@@H]2CCN(C3COC3)CC2(F)F)nn2ccc(-c3cc(F)c4nc(C)n(C(C)C)c4c3)c12 [Compound 551, (R)—N-(3,3-Difluoro-1-(oxetan-3-yl)piperidin-4-yl)-5-(4-fluoro-1-isopropyl-2-methyl-1H-benzo[d]imidazol-6-yl)-4-methoxypyrrolo[2,1-f][1,2,4]triazin-2-amine] | 8.80
COc1nc(N[C@H]2CCN(C3COC3)CC2(F)F)nn2ccc(-c3ccc4nc(C)n(CC(F)F)c4c3)c12 [Compound 143, (S)—N-(3,3-Difluoro-1-(oxetan-3-yl)piperidin-4-yl)-5-(1-(2,2-difluoroethyl)-2-methyl-1H-benzo[d]imidazol-6-yl)-4-methoxypyrrolo[2,1-f][1,2,4]triazin-2-amine] | 7.97
COc1nc(N[C@H]2C[C@@](C)(NC(=O)C3(C#N)CC3)C2)nn2ccc(-c3ccn4nccc4c3)c12 [Compound 394, 1-Cyano-N-((1s,3s)-3-((4-methoxy-5-(pyrazolo[1,5-a]pyridin-5-yl)pyrrolo[2,1-f][1,2,4]triazin-2-yl)amino)-1-methylcyclobutyl)cyclopropane-1-carboxamide] | 8.68
COc1nc(NC2CC3CC3C2)nn2ccc(-c3cnc4nccn4c3)c12 (centres unmarked) [Compound 976, N-(Bicyclo[3.1.0]hexan-3-yl)-5-(imidazo[1,2-a]pyrimidin-6-yl)-4-methoxypyrrolo[2,1-f][1,2,4]triazin-2-amine] | 8.60
COc1nc(N[C@H](C)c2ccccc2)nn2ccc(-c3cnc4nccn4c3)c12 [Compound 233, (R)-5-(Imidazo[1,2-a]pyrimidin-6-yl)-4-methoxy-N-(1-phenylethyl)pyrrolo[2,1-f][1,2,4]triazin-2-amine] | 8.17
CNC(=O)c1cnn2ccc(-c3ccn4nc(N[C@H]5CC[C@@H](OC)CC5)nc(OC)c34)cc12 [Compound 399, 5-(4-Methoxy-2-((cis-4-methoxycyclohexyl)amino)pyrrolo[2,1-f][1,2,4]triazin-5-yl)-N-methylpyrazolo[1,5-a]pyridine-3-carboxamide] | 8.46
COc1nc(N[C@H]2C[C@@](C)(C(=O)N(C)C)C2)nn2ccc(-c3ccc4nnn(C)c4c3)c12 [Compound 211, cis-3-((4-Methoxy-5-(1-methyl-1H-benzo[d][1,2,3]triazol-6-yl)pyrrolo[2,1-f][1,2,4]triazin-2-yl)amino)-N,N,1-trimethylcyclobutane-1-carboxamide] | 8.18
COc1nc(NC23CCC(O)(CC2)C3)nn2ccc(-c3cnc4nccn4c3)c12 [Compound 978, 4-((5-(Imidazo[1,2-a]pyrimidin-6-yl)-4-methoxypyrrolo[2,1-f][1,2,4]triazin-2-yl)amino)bicyclo[2.2.1]heptan-1-ol] | 8.62
COc1nc(N[C@H]2C[C@@](C)(NC(C)=O)C2)nn2ccc(-c3cc(F)c4nc(C)n(CC(F)F)c4c3)c12 [Compound 148, N-((1s,3s)-3-((5-(1-(2,2-Difluoroethyl)-4-fluoro-2-methyl-1H-benzo[d]imidazol-6-yl)-4-methoxypyrrolo[2,1-f][1,2,4]triazin-2-yl)amino)-1-methylcyclobutyl)acetamide] | 8.74
COc1nc(N[C@H]2CC[C@](C)(O)CC2)nn2ccc(-c3cc4cnccc4[nH]3)c12 [Compound 282, trans-4-((4-Methoxy-5-(1H-pyrrolo[3,2-c]pyridin-2-yl)pyrrolo[2,1-f][1,2,4]triazin-2-yl)amino)-1-methylcyclohexan-1-ol] | 7.87
COc1nc(N[C@H]2CCN(C(C)=O)C[C@H]2F)nn2ccc(-c3cc(F)c4nc(C)n(CC(F)F)c4c3)c12 [Compound 521, 1-((3R,4S)-4-((5-(1-(2,2-Difluoroethyl)-4-fluoro-2-methyl-1H-benzo[d]imidazol-6-yl)-4-methoxypyrrolo[2,1-f][1,2,4]triazin-2-yl)amino)-3-fluoropiperidin-1-yl)ethan-1-one] | 8.59
COc1nc(N[C@H]2C[C@](C)(NC(C)=O)C2)nn2ccc(-c3ccc4nnn(C)c4c3)c12 [Compound 206, N-(trans-3-((4-Methoxy-5-(1-methyl-1H-benzo[d][1,2,3]triazol-6-yl)pyrrolo[2,1-f][1,2,4]triazin-2-yl)amino)-1-methylcyclobutyl)acetamide] | 9.40
COc1nc(N[C@H]2C[C@](C)(NC(C)=O)C2)nn2ccc(-c3cc(F)c4nnn(CC(F)F)c4c3)c12 [Compound 806, N-((1r,3r)-3-((5-(1-(2,2-Difluoroethyl)-4-fluoro-1H-benzo[d][1,2,3]triazol-6-yl)-4-methoxypyrrolo[2,1-f][1,2,4]triazin-2-yl)amino)-1-methylcyclobutyl)acetamide] | 8.85

Second part, the compound after the results:

pIC50 | Compound
8.85 | COc1nc(N[C@@H]2CN(C)C[C@@H]2F)nn2ccc(-c3ccc4nccnc4c3)c12 [Compound 350, N-((3R,4S)-4-Fluoro-1-methylpyrrolidin-3-yl)-4-methoxy-5-(quinoxalin-6-yl)pyrrolo[2,1-f][1,2,4]triazin-2-amine]
7.40 | COc1nc(NC2CCN(CC(F)(F)F)CC2)nn2ccc(-c3ccc4nccnc4c3)c12 [Compound 363, 4-Methoxy-5-(quinoxalin-6-yl)-N-(1-(2,2,2-trifluoroethyl)piperidin-4-yl)pyrrolo[2,1-f][1,2,4]triazin-2-amine]
9.15 | COc1nc(N[C@H]2CC[C@@H](NC(C)=O)CC2)nn2ccc(-c3ccc4nccn4c3)c12 [Compound 53, N-(cis-4-((5-(Imidazo[1,2-a]pyridin-6-yl)-4-methoxypyrrolo[2,1-f][1,2,4]triazin-2-yl)amino)cyclohexyl)acetamide]
9.10 | C[C@]1(O)CC[C@H](Nc2nc(OCC(F)F)c3c(-c4ccc5nccnc5c4)ccn3n2)CC1 [Compound 1130, (1r,4r)-4-((4-(2,2-Difluoroethoxy)-5-(quinoxalin-6-yl)pyrrolo[2,1-f][1,2,4]triazin-2-yl)amino)-1-methylcyclohexan-1-ol]
8.37 | COc1nc(N[C@@H]2CCN(C)CC2(F)F)nn2ccc(-c3ccc4nc(C)n(CC(F)F)c4c3)c12 [Compound 138, (R)—N-(3,3-Difluoro-1-methylpiperidin-4-yl)-5-(1-(2,2-difluoroethyl)-2-methyl-1H-benzo[d]imidazol-6-yl)-4-methoxypyrrolo[2,1-f][1,2,4]triazin-2-amine]
8.49 | COc1nc(NC2CCC3(CC2)COC3)nn2ccc(-c3ccc4nnn(CC(F)F)c4c3)c12 [Compound 801, 5-(1-(2,2-Difluoroethyl)-1H-benzo[d][1,2,3]triazol-6-yl)-4-methoxy-N-(2-oxaspiro[3.5]nonan-7-yl)pyrrolo[2,1-f][1,2,4]triazin-2-amine]
8.85 | COc1nc(N[C@H]2CCN(C(C)=O)C[C@H]2F)nn2ccc(-c3ccc4nnn(CC(F)(F)F)c4c3)c12 [Compound 916, 1-((3R,4S)-3-Fluoro-4-((4-methoxy-5-(1-(2,2,2-trifluoroethyl)-1H-benzo[d][1,2,3]triazol-6-yl)pyrrolo [2,1-f][1,2,4]triazin-2-yl)amino)piperidin-1-yl)ethan-1-one]
7.09 | COc1nc(NC2CCN(CC(F)(F)F)CC2)nn2ccc(-c3ccc4ncccc4c3)c12 [Compound 305, 4-Methoxy-5-(quinolin-6-yl)-N-(1-(2,2,2-trifluoroethyl)piperidin-4-yl)pyrrolo[2,1-f][1,2,4]triazin-2-amine]
8.15 | COc1nc(NC2CCN(C3COC3)CC2)nn2ccc(-c3ccn4nccc4c3)c12 [Compound 26, 4-Methoxy-N-(1-(oxetan-3-yl)piperidin-4-yl)-5-(pyrazolo[1,5-a]pyridin-5-yl)pyrrolo[2,1-f][1,2,4]triazin-2-amine]
5.00 | COc1nc(N[C@H]2CC[C@@H](OC)CC2)nn2ccc(-c3ccn4nccc4c3)c12 [Compound 9, 4-Methoxy-N-(cis-4-methoxycyclohexyl)-5-(pyrazolo[1,5-a]pyridin-5-yl)pyrrolo[2,1-f][1,2,4]triazin-2-amine]
8.72 | CCN1CC[C@@H](Nc2nc(OC)c3c(-c4ccc5nnn(CC(F)F)c5c4)ccn3n2)C(F)(F)C1 [Compound 780, (R)-5-(1-(2,2-Difluoroethyl)-1H-benzo[d][1,2,3]triazol-6-yl)-N-(1-ethyl-3,3-difluoropiperidin-4-yl)-4-methoxypyrrolo[2,1-f][1,2,4]triazin-2-amine]
8.42 | CN1CC[C@@H](Nc2nc(OC3COC3)c3c(-c4ccc5nccnc5c4)ccn3n2)C(F)(F)C1 [Compound 1136, (R)—N-(3,3-Difluoro-1-methylpiperidin-4-yl)-4-(oxetan-3-yloxy)-5-(quinoxalin-6-yl)pyrrolo[2,1-f][1,2,4]triazin-2-amine]
8.60 | COc1nc(NC23CC(N)(C2)C3)nn2ccc(-c3ccc4nccnc4c3)c12 [Compound 381, N1-(4-Methoxy-5-(quinoxalin-6-yl)pyrrolo[2,1-f][1,2,4]triazin-2-yl)bicyclo[1.1.1]pentane-1,3-diamine]
9.05 | COc1nc(N[C@@H]2CCN(C3COC3)CC2(F)F)nn2ccc(-c3ccc4nnn(CC(F)(F)F)c4c3)c12 [Compound 922, (R)—N-(3,3-Difluoro-1-(oxetan-3-yl)piperidin-4-yl)-4-methoxy-5-(1-(2,2,2-trifluoroethyl)-1H-benzo[d][1,2,3]triazol-6-yl)pyrrolo[2,1-f][1,2,4]triazin-2-amine]
